Data on 2 compounds can be found in article PMC12073438, “Stereoselectivity of In Vivo Processes and Bioactivity of Farrerol Enantiomers” (Molecules, 2025).

The nature of series [1]: Stereoselective pharmacokinetics in rat liver tissue. The format is in vivo, Sprague–Dawley rats. The conditions noted are these: rat liver, oral 40 mg/kg farrerol racemate; for Cmax / AUC(0–t) / AUC(0–∞): 40 mg/kg. As to the method:
(§1) Forty-two rats were divided randomly into seven groups (6 rats per time point at 0.5, 1, 2, 4, 8, 12, and 24 h) and were orally administered farrerol racemate at a dose of 40 mg/kg. Rats from each group were euthanized, and kidney and liver tissues were subsequently obtained. After washing three times using 0.9% sodium chloride solution, the attached blood and fat tissues were removed. Afterward, 0.5 g of the precisely weighed liver and kidney tissues were added to 1 mL 0.9% sodium chloride solution and homogenized in an ice bath. Subsequently, 150 µL of supernatant was transferred into a 2.0 mL EP tube for pre-treatment, in the same way as the pretreatment of plasma samples (see Section 3.4.1).
(§2) Stereoselective chromatographic analysis of farrerol enantiomers was conducted utilizing an ACQUITY UPLC I-Class UPLC system (Waters, Milford, MA, USA), which is equipped with a quaternary pump and an autosampler. The chiral separation was carried out employing a Chiralpak OJ-RH column (250 mm × 4.6 mm, 5 μm), which was obtained from Daicel Chemical Industries (Shanghai, China). The mobile phase consisted of ACN-H2O (60:40, v/v), and the constant flow rate was 0.5 mL/min. The column temperature was set at 25 °C, and the injection volume was 10 μL.
(§3) Mass detection was conducted using a triple quadrupole mass spectrometer (Waters Co., USA) equipped with an electrospray ionization (ESI) source. The detection of enantiomers and internal standards (IS) was carried out in multiple reaction monitoring (MRM) mode utilizing negative ionization. The m/z 299→179 for enantiomers and m/z 267→252 for IS were selected as detecting ions for quantitation. The collision energies (CE) were established at 22 eV and 20 eV, respectively. The primary mass spectrometry (MS) parameters were configured as follows: capillary voltage was set to 3.5 kV, ion source temperature was maintained at 150 °C, desolvation gas flow rate was 800 L/h, and the cone voltage (CV) was adjusted to 1.3 V.
(§4) Pharmacokinetic analysis was conducted utilizing the Drug and Statistics (DAS) 2.0 software provided by the Chinese Pharmacological Society. To assess the differences in pharmacokinetic parameters, the IC50 values of the evaluated CYP enzymes and the permeability coefficients between the two farrerol enantiomers, paired sample t-tests and independent sample t-tests were performed. Statistical significance was defined as * p < 0.05 and ** p < 0.01. All results are presented as mean values ± standard deviation (SD).

Series [2] can be described thus: Stereoselective pharmacokinetics in rat kidney tissue. The format is in vivo, Sprague–Dawley rats. To be noted: rat kidney, oral 40 mg/kg farrerol racemate; for Cmax / AUC(0–t) / AUC(0–∞): 40 mg/kg. As to the method: as §1, §2, §3, §4
A further series addresses CYP2D6 (Homo sapiens, UniProt P10635). In words: CYP inhibition in liver microsomes (dextromethorphan). Type of series: in vitro ADME. The conditions noted are these: CYP 2D6, marker substrate dextromethorphan. The procedure:
(§5) A liver microsome working solution (20 mg/mL) contained potassium phosphate buffer (0.1 M, pH 7.4), hepatic microsomes and marker substrate solution, which phenacetin, diclofenic acid, S-mephenytoinwer, dextromethorphan, midazolam, coumarin and chlorzoxazone used as substrates for […], CYP2C9, CYP2C19, CYP2D6, CYP3A4/5, CYP2A6 and CYP2E1, respectively. In brief, 238.5 µL of liver microsome working solution was placed in a 1 mL EP tube. […] The reaction was started by injecting NADPH (1 mM), and the resulting mixture was incubated at 37 °C for 10 min. After centrifuging at 4000 rpm for 15 min, the supernatant was transferred and analyzed using LC-MS/MS to detect the corresponding metabolites. Each incubation was conducted in triplicate (n = 3).
(§6) An API 4000 LC/tandem mass spectrometry was used to analyze the concentration of metabolites of various chemical agents using a validated mode. An Atlantis T3 column (2.1 mm × 50 mm, 5 μm) was utilized, employing mobile phases consisting of a 0.1% formic acid solution (A) and a 0.1% acetonitrile formate solution (B). […] MRM was utilized to quantify each metabolite, detecting the following transitions: m/z 152.1/110 for acetaminophen, 312.1/230.0 for 4′-Hydroxydiclofenac, 235.0/150.0 for 4′-hydroxymephentoin, 258.2/199.1 for Dextrorphan, 342.1/203.0 for 1′-hydroxymidazolam, 161.1/133.1 for hydroxycoumarin, and 184.0/120.0 for 6-hydroxyclozoxadone.

The subject of the next series is CYP3A4/5. In words: CYP inhibition in liver microsomes (midazolam). To be noted: CYP 3A4/5(M); marker substrate midazolam; liver microsomes. The procedure: as §5
(§7) An API 4000 LC/tandem mass spectrometry was used to analyze the concentration of metabolites of various chemical agents using a validated mode. An Atlantis T3 column (2.1 mm × 50 mm, 5 μm) was utilized, employing mobile phases consisting of a 0.1% formic acid solution (A) and a 0.1% acetonitrile formate solution (B). […] As for the detection of CYP 2E1 metabolite, the Flow composition was as follows: 0–0.30 min, 10% B; 0.30–1.30 min, 10–55% B; 1.30–1.50 min, 55–95% B; 1.50–2.00 min, 95% B; 2.00–2.01 min, 95–10% B; the low rate was 0.85 mL/min. ESI was conducted in positive ion mode. MRM was utilized to quantify each metabolite, detecting the following transitions: m/z 152.1/110 for acetaminophen, 312.1/230.0 for 4′-Hydroxydiclofenac, 235.0/150.0 for 4′-hydroxymephentoin, 258.2/199.1 for Dextrorphan, 342.1/203.0 for 1′-hydroxymidazolam, 161.1/133.1 for hydroxycoumarin, and 184.0/120.0 for 6-hydroxyclozoxadone.

In a further series the target is T1, CYP2A6 (Homo sapiens, UniProt P11509).
T1 sequence (P11509 1-494): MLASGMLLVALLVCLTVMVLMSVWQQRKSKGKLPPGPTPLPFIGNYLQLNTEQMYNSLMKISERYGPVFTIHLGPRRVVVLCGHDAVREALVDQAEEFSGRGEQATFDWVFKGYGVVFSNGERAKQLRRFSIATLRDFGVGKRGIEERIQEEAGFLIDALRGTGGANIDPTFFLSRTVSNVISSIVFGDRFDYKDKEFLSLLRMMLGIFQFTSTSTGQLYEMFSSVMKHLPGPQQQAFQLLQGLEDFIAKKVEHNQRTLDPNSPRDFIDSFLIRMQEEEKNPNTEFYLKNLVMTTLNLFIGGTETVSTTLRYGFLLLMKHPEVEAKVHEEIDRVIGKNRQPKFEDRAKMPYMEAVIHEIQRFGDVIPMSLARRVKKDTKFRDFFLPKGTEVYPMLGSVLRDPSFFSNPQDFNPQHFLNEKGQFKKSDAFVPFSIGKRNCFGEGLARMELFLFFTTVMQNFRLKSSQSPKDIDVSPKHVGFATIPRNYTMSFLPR
Kind of series: CYP inhibition in liver microsomes (coumarin). The procedure: as §5, §7

A further series deals with CYP2E1 (Homo sapiens, UniProt P05181). In words: CYP inhibition in liver microsomes (chlorzoxazone). Type of series: in vitro ADME. The conditions noted are these: CYP 2E1, marker substrate chlorzoxazone. The procedure: as §5, §6
CYP2E1, sequence (P05181 whole entry): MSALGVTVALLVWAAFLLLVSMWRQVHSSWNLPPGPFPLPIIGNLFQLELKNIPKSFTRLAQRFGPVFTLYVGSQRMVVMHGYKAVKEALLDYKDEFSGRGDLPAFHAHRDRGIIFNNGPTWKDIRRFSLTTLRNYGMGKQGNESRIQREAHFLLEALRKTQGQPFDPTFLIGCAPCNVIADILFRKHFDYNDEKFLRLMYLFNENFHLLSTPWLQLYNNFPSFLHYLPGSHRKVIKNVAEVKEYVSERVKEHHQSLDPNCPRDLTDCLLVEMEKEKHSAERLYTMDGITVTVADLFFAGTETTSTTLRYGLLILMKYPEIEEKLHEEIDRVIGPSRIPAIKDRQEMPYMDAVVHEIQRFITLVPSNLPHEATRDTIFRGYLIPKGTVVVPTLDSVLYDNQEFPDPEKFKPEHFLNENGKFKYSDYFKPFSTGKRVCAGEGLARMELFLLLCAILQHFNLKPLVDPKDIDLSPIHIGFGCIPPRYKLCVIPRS

“And” between values parts separate entries of the source, which are not always exact repeats. Equal entries are not always repeated. Where two headings read alike, the source gives them in different places.

CYP2D6, sequence (P10635 whole entry): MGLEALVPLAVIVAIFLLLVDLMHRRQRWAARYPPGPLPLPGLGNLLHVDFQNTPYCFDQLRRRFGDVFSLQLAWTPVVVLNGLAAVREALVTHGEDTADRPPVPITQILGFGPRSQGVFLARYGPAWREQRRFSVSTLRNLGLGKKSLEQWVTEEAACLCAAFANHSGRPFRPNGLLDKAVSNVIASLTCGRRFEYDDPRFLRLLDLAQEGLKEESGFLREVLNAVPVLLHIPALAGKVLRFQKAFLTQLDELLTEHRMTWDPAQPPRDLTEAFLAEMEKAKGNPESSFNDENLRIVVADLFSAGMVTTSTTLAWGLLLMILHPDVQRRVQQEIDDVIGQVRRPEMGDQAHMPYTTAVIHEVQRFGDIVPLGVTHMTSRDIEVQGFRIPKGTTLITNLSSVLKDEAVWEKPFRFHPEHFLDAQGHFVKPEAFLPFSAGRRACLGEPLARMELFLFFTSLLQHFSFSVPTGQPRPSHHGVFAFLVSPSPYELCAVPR

For the compound `Cc1c(O)c(C)c2c(c1O)C(=O)CC(c1ccc(O)cc1)O2` (single isomer, unassigned; (+)) [(+)-farrerol, 2,3-dihydro-5,7-dihydroxy-2-(4-hydroxyphenyl)-6,8-dimethyl-4-benzopyrone], the Cmax in series [1] (Sprague-Dawley, rat, liver, po, read-out: Cmax) is 104000 ± 18000 ng/g; in series [2] (Sprague-Dawley, rat, kidney, po, read-out: Cmax), 3020 ± 350 ng/g. In addition, the Tmax in series [1] (Sprague-Dawley, read-out: Tmax) was 2 h; in series [2] (Sprague-Dawley, read-out: Tmax), 1 h. Also, the “AUC(0–t)” value turned out to be 976.25 ± 41.60 µg·h/g in series [1] and 23.93 ± 2.11 µg·h/g in series [2]. Further, the “AUC(0–∞)” value was determined as 994.01 ± 40.84 µg·h/g in series [1] and 25.70 ± 2.09 µg·h/g in series [2]. Further, the IC50 was above 50 µM on CYP2D6, above 5e-05 M in the series with CYP3A4/5, above 50 µM against CYP2A6 and above 50 µM against CYP2E1.
Take `Cc1c(O)c(C)c2c(c1O)C(=O)CC(c1ccc(O)cc1)O2` (single isomer, unassigned; (-)) [(−)-farrerol, 2,3-dihydro-5,7-dihydroxy-2-(4-hydroxyphenyl)-6,8-dimethyl-4-benzopyrone]: in series [1], the “AUC0–24 of (−)-farrerol relative to (+)-farrerol” value is recorded as 1.23 times; the “Cmax of (−)-farrerol relative to (+)-farrerol” value came out at 1.43 times; the time to peak (Tmax) was found to be 2.00 h; the “AUC(0–t)” value is 1200.9 µg/g*h and 1200.96 ± 58.92 * µg/g*h. Further, in series [1], the “AUC(0–∞)” value is recorded as 1217.62 ± 65.03 * µg/g*h and the Cmax is given as 148.4 ± 2.61 * µg/g. In addition, in series [2], the “AUC0–24 of (−)-farrerol relative to (+)-farrerol” value is 1.20 times, the Tmax stood at 1.00 h, the “AUC(0–t)” value was 28.89 ± 2.53 * µg/g*h and the “AUC(0–∞)” value is on record as 30.31 ± 2.47 * µg/g*h. Moreover, the Cmax in series [2] is listed as 4.18 ± 0.48 * µg/g. In addition, the IC50 on CYP2D6 was above 50 µM. The same compound came in with an IC50 in the series on CYP3A4/5 of 2.09e-05 M. On CYP2A6 (CYP 2A6, marker substrate coumarin, liver microsomes), this compound registered an IC50 above 50 µM. On CYP2E1, this compound gave a half-inhibitory concentration (IC50) above 50 µM.
